{"source": "patent US20230321012A1", "about": "(priority 2021, published 2023)", "key": {"[1]": {"test": "Clinical safety and tolerability, dose-limiting toxicities (NCT03536728)", "format": "in vivo", "text": "(§1) Clinical Trial Outline. […] All solid tumor types are eligible for the trial. […] DFMO was delivered orally twice daily in gel capsules.\nThese DLTs involved vomiting, diarrhea and nausea, and inferred a potential dual drug targeting of the gastrointestinal (GI) tract in these patients. One patient experienced severe dehydration, requiring hospitalization. A similar observation was made in dogs in Aminex's 28-day toxicological testing. […] The clinical observations and the data obtained in dog studies, together, support the hypothesis that combined oral drug dosing levels and DFMO targeting of the GI tract are causing the intolerance.\nIn cohorts before Part 2, Cohort 4, 14 adults were treated at 1,200 mg or higher of AMXT 1501 daily, either once daily or BID, with no DLTs. A total of 18 patients were treated at 800 mg AMXT 1501 or higher daily with no DLTs. These patients included a couple of adult patients where Cmax values above 1,000 ng/mL AMXT 1501 plasma levels were observed, again with no DLTs observed."}, "[2]": {"system": "four tumor cell lines", "test": "In vitro tumor cell growth inhibition by AMXT 1501", "format": "cell-based", "settings": "equivalent of 51 nM", "text": "See Burns, M. R., et al., J Med Chem 52, 1983-1993 (2009), the entire content of which is incorporated herein by reference."}, "[3]": {"system": "spermidine", "test": "MALDI-FTICR imaging quantitation of PD marker spermidine in whole-body sections of Th-MYCN mice", "format": "in vivo, mouse", "settings": "for Quantitation of spermidine in the whole-body section: Th-MYCN mice, one value per animal; for spermidine level in tumor, comparison of groups: mouse, in vivo; for Spermidine concentration in tumor, Values / Spermidine concentration in tumor, Average: raw determination, 96 h; for Spermidine concentration in tumor, Values: individual Th-MYCN mice; for Spermidine concentration in tumor, Average: treatment group average; for spermidine in eye: vehicle 9.14 μM", "experimental": "(§2) The lower limit of detection based on the calibration curve using labeled spermidine was 0.80 μg/g, while for spermine it was 1.10 μg/g."}, "[4]": {"system": "spermine", "test": "MALDI-FTICR imaging quantitation of PD marker spermine in whole-body sections of Th-MYCN mice", "format": "in vivo, mouse", "settings": "for Quantitation of spermine in the whole-body section: Th-MYCN mice, one value per animal; for spermine in lung: group average; for spermine level in tumor, comparison of groups: mouse, in vivo; for Spermine concentration in tumor, Value / Spermine concentration in tumor, Average: raw determination, 96 h; for Spermine concentration in tumor, Value: individual Th-MYCN mice; for Spermine concentration in tumor, Average: treatment group average; for spermine in eye: vehicle 17.6 μM", "experimental": "as §2"}, "[5]": {"system": "four tumor cell lines", "settings": "average, growth of four cell lines in culture; read-out: in vitro EC50 against cancer cells; cited from earlier work"}, "[6]": {"test": "AMXT 1501 level in tumor biopsy of a melanoma patient", "settings": "male, human, in vivo"}, "[7]": {"test": "Clinical plasma pharmacokinetics of oral DFMO (NCT03536728)", "format": "in vivo", "settings": "human", "text": "as §1"}, "[8]": {"test": "Water solubility, bioavailability and Biopharmaceutics Classification System class", "format": "physicochemical", "text": "Interim data for the pharmacokinetic (PK) behavior of both agents in human subjects has been generated."}}, "note": "Several values for one entry are separate records, joined by “and”; a condition that tells them apart may be missing. Equal entries are not always repeated. Where two headings read alike, the source gives them in different places.", "data": [{"compound": "CCCCCCCCCCCCCCCC(=O)NCCCC[C@@H](N)C(=O)NCCCNCCCCNCCCN", "note": "[AMXT 1501, D-lys(palmitoyl)-spermine]", "values": [{"measurement": "dose-limiting toxicities", "setting": "[1]; 14 adults at 1,200 mg or higher of AMXT 1501 daily, QD or BID, cohorts before Part 2 Cohort 4", "result": "no DLTs"}, {"measurement": "dose-limiting toxicities", "setting": "[1]; 18 patients at 800 mg AMXT 1501 or higher daily", "result": "no DLTs"}, {"measurement": "EC50 expressed per tissue weight", "setting": "[2]", "result": 0.029, "unit": "µg/g"}, {"measurement": "EC50", "setting": "[2]; read-out: EC50 as equivalent plasma concentration", "result": 0.028, "unit": "µg/mL"}, {"measurement": "Quantitation of spermidine in the whole-body section", "setting": "[3]; Eye", "result": 3.21, "unit": "µM"}, {"measurement": "Quantitation of spermidine in the whole-body section", "setting": "[3]; Intestine contents", "result": "6.36 µM and 9.59 µM"}, {"measurement": "Quantitation of spermidine in the whole-body section", "setting": "[3]; Stomach contents", "result": "2.05 µM and 0.00 µM"}, {"measurement": "Quantitation of spermidine in the whole-body section", "setting": "[3]; Tumor", "result": 1.32, "unit": "µM"}, {"measurement": "Quantitation of spermidine in the whole-body section", "setting": "[3]; White fat", "result": 5.26, "unit": "µM"}, {"measurement": "spermidine level in tumor, comparison of groups", "setting": "[3]", "result": "lowest levels"}, {"measurement": "Spermidine concentration in tumor, Values", "setting": "[3]", "result": "BLOD and 1.32 μM"}, {"measurement": "Spermidine concentration in tumor, Average", "setting": "[3]", "result": 1.32, "unit": "µM"}, {"measurement": "spermidine in eye", "setting": "[3]", "result": 3, "unit": "µM"}, {"measurement": "Quantitation of spermine in the whole-body section", "setting": "[4]; Eye", "result": "4.19 µM and 5.03 µM"}, {"measurement": "spermine in lung", "setting": "[4]", "result": "low"}, {"measurement": "spermine level in tumor, comparison of groups", "setting": "[4]", "result": "lowest levels"}, {"measurement": "Spermine concentration in tumor, Value", "setting": "[4]", "result": "BLOD"}, {"measurement": "Spermine concentration in tumor, Average", "setting": "[4]", "result": "BLOD"}, {"measurement": "spermine in eye", "setting": "[4]", "result": "around 5 μM"}, {"measurement": "EC50", "setting": "[5]", "result": 51, "unit": "nM"}, {"measurement": "Kp", "setting": "[6]", "result": 14.6}]}, {"compound": "NCCCC(N)(C(=O)O)C(F)F", "note": "(stereo not shown) [DFMO, difluoromethylornithine]", "values": [{"measurement": "AUC", "setting": "[7]; 500 mg/day split BID, Day 28, n=14", "result": 11400, "unit": "ng·h/mL"}, {"measurement": "Cmax", "setting": "[7]; 7-day repeat dosing of 1000 mg split BID, Cohort 3, n=6", "result": 4440, "unit": "ng/mL"}, {"measurement": "Quantitation of spermidine in the whole-body section", "setting": "[3]; Brain", "result": 1.86, "unit": "µM"}, {"measurement": "Quantitation of spermidine in the whole-body section", "setting": "[3]; Brown fat", "result": 3.80, "unit": "µM"}, {"measurement": "Quantitation of spermidine in the whole-body section", "setting": "[3]; Cardiac blood", "result": 0.00, "unit": "µM"}, {"measurement": "Quantitation of spermidine in the whole-body section", "setting": "[3]; Eye", "result": "6.11 µM and 5.24 µM"}, {"measurement": "Quantitation of spermidine in the whole-body section", "setting": "[3]; Intestine contents", "result": "43.17 µM and 5.61 µM"}, {"measurement": "Quantitation of spermidine in the whole-body section", "setting": "[3]; Intestine wall", "result": 4.56, "unit": "µM"}, {"measurement": "Quantitation of spermidine in the whole-body section", "setting": "[3]; Kidney", "result": 1.35, "unit": "µM"}, {"measurement": "Quantitation of spermidine in the whole-body section", "setting": "[3]; Liver", "result": 6.67, "unit": "µM"}, {"measurement": "Quantitation of spermidine in the whole-body section", "setting": "[3]; Lung", "result": "4.53 µM and 2.64 µM"}, {"measurement": "Quantitation of spermidine in the whole-body section", "setting": "[3]; Stomach wall", "result": 1.13, "unit": "µM"}, {"measurement": "Quantitation of spermidine in the whole-body section", "setting": "[3]; Testis", "result": 1.97, "unit": "µM"}, {"measurement": "Quantitation of spermidine in the whole-body section", "setting": "[3]; Thymus", "result": 6.00, "unit": "µM"}, {"measurement": "Quantitation of spermidine in the whole-body section", "setting": "[3]; Tumor", "result": 5.39, "unit": "µM"}, {"measurement": "spermidine level in tumor, comparison of groups", "setting": "[3]", "result": "highest levels"}, {"measurement": "Spermidine concentration in tumor, Values", "setting": "[3]", "result": "BLOD and 5.39 μM"}, {"measurement": "Spermidine concentration in tumor, Average", "setting": "[3]", "result": 5.39, "unit": "µM"}, {"measurement": "spermidine in eye", "setting": "[3]", "result": 6, "unit": "µM"}, {"measurement": "Quantitation of spermine in the whole-body section", "setting": "[4]; Eye", "result": "16.03 µM and 8.07 µM"}, {"measurement": "Quantitation of spermine in the whole-body section", "setting": "[4]; Intestine contents", "result": 2.46, "unit": "µM"}, {"measurement": "Quantitation of spermine in the whole-body section", "setting": "[4]; Intestine wall", "result": 3.44, "unit": "µM"}, {"measurement": "Quantitation of spermine in the whole-body section", "setting": "[4]; Kidney", "result": 4.69, "unit": "µM"}, {"measurement": "Quantitation of spermine in the whole-body section", "setting": "[4]; Liver", "result": 2.14, "unit": "µM"}, {"measurement": "Quantitation of spermine in the whole-body section", "setting": "[4]; Lung", "result": "4.78 µM and 7.91 µM"}, {"measurement": "Quantitation of spermine in the whole-body section", "setting": "[4]; Myocardium", "result": "BLOQ"}, {"measurement": "Quantitation of spermine in the whole-body section", "setting": "[4]; Stomach contents", "result": 0.00, "unit": "µM"}, {"measurement": "Quantitation of spermine in the whole-body section", "setting": "[4]; Stomach wall", "result": "BLOQ"}, {"measurement": "Quantitation of spermine in the whole-body section", "setting": "[4]; Testis", "result": 7.40, "unit": "µM"}, {"measurement": "Quantitation of spermine in the whole-body section", "setting": "[4]; Thymas", "result": "BLOQ"}, {"measurement": "Quantitation of spermine in the whole-body section", "setting": "[4]; Tumor", "result": 6.03, "unit": "µM"}, {"measurement": "spermine in lung", "setting": "[4]", "result": 6.35, "unit": "µM"}, {"measurement": "spermine level in tumor, comparison of groups", "setting": "[4]", "result": "highest levels"}, {"measurement": "Spermine concentration in tumor, Value", "setting": "[4]", "result": "BLOD and 6.03 μM"}, {"measurement": "Spermine concentration in tumor, Average", "setting": "[4]", "result": 6.03, "unit": "µM"}, {"measurement": "spermine in eye", "setting": "[4]", "result": 12, "unit": "µM"}, {"measurement": "water solubility", "setting": "[8]", "result": "high water solubility"}]}]}
